In PubChem BioAssay AID328 (DTP/NCI, 2004):
“And” between values parts separate entries of the source, which are not always exact repeats. Equal values may be shown once. Inconclusive results and toxic doses are left out.

Test system: BDF1 mice, P388 leukemia ip, median survival T/C
Assay: NCI In Vivo Anticancer Drug Screen. Data for tumor model P388 Leukemia (intraperitoneal) in B6D2F1 (BDF1) mice
Settings: endpoint: median survival time, higher = longer survival
Method in brief: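 Antitumour effect was judged in vivo: survival in drug-treated mice, normalised to that of vehicle-dosed controls, gives the reported T/C.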

Which T/C (dose: 35.0 mg/kg/injection, schedule: Q01DX009 (ip), vehicle: saline) does the source give for `CCN=C1N[N+]2=CCCCC2S1` (stereo not drawn) here?
Its T/C is 111 % of control.

And the T/C (dose: 140.0 mg/kg/injection, schedule: Q01DX009 (ip), vehicle: saline)?
The T/C was 95 % of control.

Which T/C (dose: 1.0 mg/kg/injection, schedule: Q01DX009 (ip), vehicle: water) does the source give for `O=C1c2ccccc2C(=O)c2c(O)c(N3CCOCC3)cc(O)c21` here?
The T/C was 121 % of control.

What about the T/C (dose: 2.0 mg/kg/injection, schedule: Q01DX009 (ip), vehicle: water) of the same compound?
The T/C was 104 % of control.

And the T/C (dose: 4.0 mg/kg/injection, schedule: Q01DX009 (ip), vehicle: water)?
Its T/C is 104 % of control.

And the T/C (dose: 8.0 mg/kg/injection, schedule: Q01DX009 (ip), vehicle: water)?
The T/C was 89 % of control.

And the T/C (dose: 16.0 mg/kg/injection, schedule: Q01DX009 (ip), vehicle: water)?
Its T/C is 111 % of control.

And the T/C (dose: 32.0 mg/kg/injection, schedule: Q01DX009 (ip), vehicle: water)?
Its T/C is 113 % of control.

And the T/C (dose: 50.0 mg/kg/injection, schedule: Q01DX009 (ip), vehicle: saline)?
The T/C was 90 % of control.

Which T/C (dose: 1.0 mg/kg/injection, schedule: Q01DX009 (ip), vehicle: saline) does the source give for `CCC(=O)NC1=C(N2CC2)C(=O)C(NC(=O)CC)=C(N2CC2)C1=O` here?
The T/C was 171 % of control and 185 % of control.

What about the T/C (dose: 2.0 mg/kg/injection, schedule: Q01DX009 (ip), vehicle: saline) of the same compound?
Its T/C is 225 % of control and 228 % of control.

And the T/C (dose: 4.0 mg/kg/injection, schedule: Q01DX009 (ip), vehicle: saline)?
The T/C was 90 % of control and 119 % of control.

With `COC(=O)c1c(-c2ccccc2)c(-c2ccccc2)nn(-c2ccccc2)c1=O` as the compound, how does the T/C (dose: 400.0 mg/kg/injection, schedule: Q01DX001 (ip), vehicle: saline with Tween-80) read?
Its T/C is 87 % of control.

`CCN(CC)c1c(C)nnc2c(-c3ccccc3)cnn12` was tested. Which T/C (dose: 50.0 mg/kg/injection, schedule: Q04DX003 (ip), vehicle: saline with Tween-80) did it give?
Its T/C is 108 % of control.

And the T/C (dose: 100.0 mg/kg/injection, schedule: Q04DX003 (ip), vehicle: saline with Tween-80)?
Its T/C is 100 % of control.

What about the T/C (dose: 200.0 mg/kg/injection, schedule: Q04DX003 (ip), vehicle: saline with Tween-80) of the same compound?
Its T/C is 104 % of control.

For `ClC1=C(Cl)C2(Cl)C3C4CC(C5OC45)C3C1(Cl)C2(Cl)Cl` (stereo not drawn), which T/C (dose: 3.13 mg/kg/injection, schedule: Q01DX009 (ip), vehicle: suspension in saline) is on record?
Its T/C is 96 % of control.

Which T/C (dose: 0.38 mg/kg/injection, schedule: Q01DX009 (ip), vehicle: saline with Tween-80) does the source give for `CC1=CC(=O)C(CO)=CC1=O` here?
Its T/C is 105 % of control.

What about the T/C (dose: 0.75 mg/kg/injection, schedule: Q01DX009 (ip), vehicle: saline with Tween-80) of the same compound?
Its T/C is 108 % of control.

And the T/C (dose: 1.5 mg/kg/injection, schedule: Q01DX009 (ip), vehicle: saline with Tween-80)?
The T/C was 110 % of control.

What about the T/C (dose: 3.0 mg/kg/injection, schedule: Q01DX009 (ip), vehicle: saline with Tween-80) of the same compound?
The T/C was 115 % of control.

What about the T/C (dose: 6.0 mg/kg/injection, schedule: Q01DX009 (ip), vehicle: saline with Tween-80) of the same compound?
The T/C was 107 % of control.

How did the T/C (dose: 100.0 mg/kg/injection, schedule: Q04DX003 (ip), vehicle: Klucel (hydroxypropylcellulose) (HPC)) turn out when `CCCC(=O)c1c(C)cc(C)cc1C` was run?
Its T/C is 110 % of control.

And the T/C (dose: 200.0 mg/kg/injection, schedule: Q04DX003 (ip), vehicle: Klucel (hydroxypropylcellulose) (HPC))?
The T/C was 110 % of control.

And the T/C (dose: 400.0 mg/kg/injection, schedule: Q04DX003 (ip), vehicle: Klucel (hydroxypropylcellulose) (HPC))?
The T/C was 120 % of control.

What does the source list for `COC(=O)CSc1ncc2cnccn12`?
T/C (dose: 100.0 mg/kg/injection, schedule: Q04DX003 (ip), vehicle: water): 109 % of control; T/C (dose: 200.0 mg/kg/injection, schedule: Q04DX003 (ip), vehicle: water): 100 % of control; T/C (dose: 400.0 mg/kg/injection, schedule: Q04DX003 (ip), vehicle: water): 109 % of control

What does the source list for `NC(CO)Cc1ccccc1` (stereo not drawn)?
T/C (dose: 12.5 mg/kg/injection, schedule: Q01DX009 (ip), vehicle: Klucel (hydroxypropylcellulose) (HPC)): 106 % of control; T/C (dose: 25.0 mg/kg/injection, schedule: Q01DX009 (ip), vehicle: Klucel (hydroxypropylcellulose) (HPC)): 91 % of control

With `CCC(CC)OCCN1CCN(CCCN2c3ccccc3Sc3ccc(C(F)(F)F)cc32)CC1` as the compound, how does the T/C (dose: 5.0 mg/kg/injection, schedule: Q04DX003 (ip), vehicle: saline with Tween-80) read?
The T/C was 103 % of control and 104 % of control.

And the T/C (dose: 10.0 mg/kg/injection, schedule: Q04DX003 (ip), vehicle: saline with Tween-80)?
The T/C was 108 % of control and 116 % of control.

And the T/C (dose: 20.0 mg/kg/injection, schedule: Q04DX003 (ip), vehicle: saline with Tween-80)?
The T/C was 122 % of control.
